Results: ChEMBL document CHEMBL5506024, “Multitarget μ-Opioid Receptor Agonists─Neuropeptide FF Receptor Antagonists Induce Potent Antinociception with Reduced Adverse Side Effects” (J Med Chem, 2024)
Active and inactive are the calls of the source. Numbered stars: 1 amine (or outer) side, 2 acyl side, 3 side chain; on linkers, the order of the positions; unused ones are H or OH. Square brackets hold non-standard residues; d marks the D form. Peptide text beside a SMILES is read from it. Nva(5-(4-Bn-piperidin-1-yl)) = N[C@@H](CCCN1CCC(Cc2ccccc2)CC1)C(=O)O; X1 = O=C1[C@@H](N[*:1])Cc2ccccc2CN1CCC(=O)[*:2]; Dmt = Cc1cc(O)cc(C)c1C[C@H](N)C(=O)O

Assays:
Mus musculus [1] = assay: Antinociceptive activity in mouse assessed as basal nociceptive threshold at 10 mg/kg, sc administered daily and measured on day 2 to 7; format: functional, organism-based
[2] = Induction of naltrexone-precipitated withdrawal syndrome in sc dosed C57BL/6N mouse assessed as vegetative signs administered for 8 days followed by naltrexone addition on day 9 after 2 hrs post last dose and measured after 30 mins; format: toxicity, organism-based; settings: in vivo, 216.5 h, time 12990 min
Mus musculus [3] = assay: Antinociceptive activity in mouse at 10 mg/kg, sc measured after 6 hrs in presence of naloxone methiodide by tail immersion test; format: functional, organism-based
[4] = Induction of naltrexone-precipitated withdrawal syndrome in sc dosed C57BL/6N mouse assessed as somatic signs administered for 8 days followed by naltrexone addition on day 9 after 2 hrs post last dose and measured after 30 mins; format: toxicity, organism-based; settings: in vivo, 216.5 h, time 12990 min
Mus musculus [5] = assay: Antinociceptive activity in mouse at 10 mg/kg, sc administered daily and measured on day 8; format: functional, organism-based
Mus musculus [6] = assay: Antinociceptive activity in mouse at 4.2 umol/kg, sc measured after 6 hrs in presence of naloxone methiodide by tail immersion test; format: functional, organism-based; settings: dose 4.2 µmol/kg
[7] = Toxicity in sc dosed C57BL/6N mouse assessed as induction of respiratory depression by measuring decrease in pulmonary rate by plethysmography; format: organism-based; settings: in vivo
[8] = biological target: T1, Neuropeptide FF receptor 2 (Homo sapiens, UniProt Q9Y5X5); assay: Displacement of [125I]-1DMeNPFF from human NPFFR2 expressed in CHO cell membrane at 0.05 uM incubated for 1 hr by Topcount counting method relative to control; format: cell membranes; settings: filed as antagonist
T1 sequence (Q9Y5X5 whole entry): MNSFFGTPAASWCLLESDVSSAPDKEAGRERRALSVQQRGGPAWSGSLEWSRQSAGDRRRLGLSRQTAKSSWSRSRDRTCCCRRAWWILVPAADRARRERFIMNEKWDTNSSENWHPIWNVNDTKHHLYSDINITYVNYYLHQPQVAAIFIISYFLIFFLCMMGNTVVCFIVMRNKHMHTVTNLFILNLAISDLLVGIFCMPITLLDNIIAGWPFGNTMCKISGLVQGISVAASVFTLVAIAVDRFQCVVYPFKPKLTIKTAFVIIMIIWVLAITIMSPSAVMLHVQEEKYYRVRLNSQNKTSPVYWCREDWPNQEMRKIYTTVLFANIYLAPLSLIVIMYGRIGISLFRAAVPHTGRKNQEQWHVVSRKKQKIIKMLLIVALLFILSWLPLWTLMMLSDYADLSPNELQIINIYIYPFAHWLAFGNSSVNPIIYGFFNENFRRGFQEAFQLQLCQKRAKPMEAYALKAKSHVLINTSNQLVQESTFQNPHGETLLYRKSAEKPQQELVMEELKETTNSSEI

[9] = Half life in mouse at 10 mg/kg, sc measured upto 24 hrs by LC-MS/MS analysis; format: ADME, organism-based; settings: in vivo
[10] = biological target: Nociceptin receptor (Homo sapiens) (UniProt P41146); assay: Partial agonist activity at human NOR expressed in HEK293 cells assessed as forskolin-induced cAMP accumulation in presence of IBMX; format: functional, cell-based; settings: filed as partial agonist
Sequence of Nociceptin receptor (Homo sapiens) (P41146 whole entry): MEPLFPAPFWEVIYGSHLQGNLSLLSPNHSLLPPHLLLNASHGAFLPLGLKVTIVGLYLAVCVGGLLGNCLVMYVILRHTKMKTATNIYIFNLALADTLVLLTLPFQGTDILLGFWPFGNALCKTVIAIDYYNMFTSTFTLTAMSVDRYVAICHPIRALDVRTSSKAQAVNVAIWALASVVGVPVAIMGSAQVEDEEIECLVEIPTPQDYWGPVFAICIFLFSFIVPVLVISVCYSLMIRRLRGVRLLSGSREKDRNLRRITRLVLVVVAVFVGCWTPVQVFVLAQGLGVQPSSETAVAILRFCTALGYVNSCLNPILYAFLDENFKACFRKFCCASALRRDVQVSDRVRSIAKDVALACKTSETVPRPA

[11] = biological target: T1, Neuropeptide FF receptor 2; assay: Displacement of [125I]-1DMeNPFF from human NPFFR2 expressed in CHO cell membrane incubated for 1 hr by Topcount counting method; format: cell membranes
[12] = biological target: T2, Pyroglutamylated RF-amide peptide receptor (Homo sapiens) (UniProt Q96P65); assay: Antagonist activity at human GPR103 expressed in CHO cells assessed as intracellular calcium release upto 10 uM by Fluo-4 AM dye based calcium mobilization assay; format: functional, cell-based
T2 sequence (whole entry): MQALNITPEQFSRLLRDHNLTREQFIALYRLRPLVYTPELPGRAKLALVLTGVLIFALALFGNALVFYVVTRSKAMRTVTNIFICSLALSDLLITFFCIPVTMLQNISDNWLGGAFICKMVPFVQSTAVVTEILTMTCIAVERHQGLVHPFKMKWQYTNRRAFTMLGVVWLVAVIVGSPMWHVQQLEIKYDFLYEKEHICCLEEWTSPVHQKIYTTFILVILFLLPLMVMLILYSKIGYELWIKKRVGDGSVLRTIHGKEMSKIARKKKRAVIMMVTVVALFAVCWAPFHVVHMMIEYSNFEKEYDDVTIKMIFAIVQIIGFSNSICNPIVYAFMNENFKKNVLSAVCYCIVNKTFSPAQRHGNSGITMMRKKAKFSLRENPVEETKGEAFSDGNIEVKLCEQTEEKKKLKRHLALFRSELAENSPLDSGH

Mu-type opioid receptor [13] = biological target: T3, Mu-type opioid receptor (Homo sapiens, UniProt P35372); assay: Agonist activity at human Rluc8-tagged MOP expressed in HEK293 cells coexpressing eYFP-tagged beta-arrestin-2 assessed as beta-arrestin-2 recruitment incubated for 5 mins by luminometer analysis; format: functional, cell-based; settings: hek293
T3 sequence (P35372 whole entry): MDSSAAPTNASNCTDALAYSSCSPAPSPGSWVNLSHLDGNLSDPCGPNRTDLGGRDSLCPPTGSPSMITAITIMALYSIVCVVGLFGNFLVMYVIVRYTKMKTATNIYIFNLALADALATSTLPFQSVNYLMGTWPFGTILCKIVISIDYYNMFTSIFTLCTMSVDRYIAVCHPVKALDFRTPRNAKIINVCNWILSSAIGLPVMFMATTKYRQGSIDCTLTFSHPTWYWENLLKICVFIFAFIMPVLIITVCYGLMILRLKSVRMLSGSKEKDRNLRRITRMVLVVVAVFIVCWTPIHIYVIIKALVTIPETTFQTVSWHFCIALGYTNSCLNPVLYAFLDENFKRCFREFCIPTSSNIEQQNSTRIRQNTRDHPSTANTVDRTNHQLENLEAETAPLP

[14] = biological target: KiSS-1 receptor (Homo sapiens) (UniProt Q969F8); assay: Antagonist activity at human GPR54 expressed in CHO cells assessed as intracellular calcium release upto 10 uM by Fluo-4 AM dye based calcium mobilization assay; format: functional, cell-based
Sequence of KiSS-1 receptor (Homo sapiens) (Q969F8 whole entry): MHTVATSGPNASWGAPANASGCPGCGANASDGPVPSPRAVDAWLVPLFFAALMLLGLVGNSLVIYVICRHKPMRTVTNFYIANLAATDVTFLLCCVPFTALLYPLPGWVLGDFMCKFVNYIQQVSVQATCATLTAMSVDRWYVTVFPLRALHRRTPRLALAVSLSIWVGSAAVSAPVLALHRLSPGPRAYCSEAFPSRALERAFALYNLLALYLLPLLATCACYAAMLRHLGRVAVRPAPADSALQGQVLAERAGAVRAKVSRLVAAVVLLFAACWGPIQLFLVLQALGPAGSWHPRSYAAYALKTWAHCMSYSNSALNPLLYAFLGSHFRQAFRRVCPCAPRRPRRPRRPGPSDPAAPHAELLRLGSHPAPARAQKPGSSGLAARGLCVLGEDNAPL

[15] = Cmax in mouse at 10 mg/kg, sc measured upto 24 hrs by LC-MS/MS analysis; format: ADME, organism-based; settings: in vivo
[16] = biological target: Kappa-type opioid receptor (Homo sapiens, UniProt P41145); assay: Partial agonist activity at human KOR expressed in HEK293 cells assessed as forskolin-induced cAMP accumulation in presence of IBMX; format: functional, cell-based; settings: filed as partial agonist
Sequence of Kappa-type opioid receptor (P41145 whole entry): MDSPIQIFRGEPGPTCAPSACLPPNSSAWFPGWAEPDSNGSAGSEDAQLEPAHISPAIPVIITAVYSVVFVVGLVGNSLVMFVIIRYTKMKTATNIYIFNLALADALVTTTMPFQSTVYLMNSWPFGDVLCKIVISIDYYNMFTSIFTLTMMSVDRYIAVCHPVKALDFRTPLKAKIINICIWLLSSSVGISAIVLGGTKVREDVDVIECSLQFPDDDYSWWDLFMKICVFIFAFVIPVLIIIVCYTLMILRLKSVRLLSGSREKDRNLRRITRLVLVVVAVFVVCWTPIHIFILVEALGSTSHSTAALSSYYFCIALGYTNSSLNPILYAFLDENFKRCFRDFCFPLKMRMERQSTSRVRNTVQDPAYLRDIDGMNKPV

[17] = Drug concentration in mouse plasma at 10 mg/kg, sc measured after 2 hrs by LC-MS/MS analysis; format: ADME, organism-based
[18] = biological target: Delta-type opioid receptor (Homo sapiens) (UniProt P41143); assay: Agonist activity at human DOP expressed in HEK293 cells assessed as inhibition of forskolin-induced cAMP accumulation; format: functional, cell-based; settings: filed as agonist
Sequence of Delta-type opioid receptor (Homo sapiens) (P41143 whole entry): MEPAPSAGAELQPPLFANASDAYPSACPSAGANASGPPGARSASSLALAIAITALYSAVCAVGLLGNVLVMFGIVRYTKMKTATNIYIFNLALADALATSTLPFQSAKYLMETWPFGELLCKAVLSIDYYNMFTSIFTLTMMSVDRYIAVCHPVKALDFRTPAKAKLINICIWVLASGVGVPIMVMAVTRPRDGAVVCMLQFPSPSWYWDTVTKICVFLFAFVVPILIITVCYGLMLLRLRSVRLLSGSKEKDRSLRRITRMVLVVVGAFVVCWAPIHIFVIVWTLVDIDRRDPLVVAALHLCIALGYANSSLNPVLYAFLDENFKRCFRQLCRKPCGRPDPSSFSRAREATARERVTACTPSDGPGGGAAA

[19] = biological target: T4, Prolactin-releasing peptide receptor (Homo sapiens) (UniProt P49683); assay: Antagonist activity at human GPR10 expressed in CHO cells assessed as intracellular calcium release upto 10 uM by Fluo-4 AM dye based calcium mobilization assay; format: functional, cell-based
T4 sequence (whole entry): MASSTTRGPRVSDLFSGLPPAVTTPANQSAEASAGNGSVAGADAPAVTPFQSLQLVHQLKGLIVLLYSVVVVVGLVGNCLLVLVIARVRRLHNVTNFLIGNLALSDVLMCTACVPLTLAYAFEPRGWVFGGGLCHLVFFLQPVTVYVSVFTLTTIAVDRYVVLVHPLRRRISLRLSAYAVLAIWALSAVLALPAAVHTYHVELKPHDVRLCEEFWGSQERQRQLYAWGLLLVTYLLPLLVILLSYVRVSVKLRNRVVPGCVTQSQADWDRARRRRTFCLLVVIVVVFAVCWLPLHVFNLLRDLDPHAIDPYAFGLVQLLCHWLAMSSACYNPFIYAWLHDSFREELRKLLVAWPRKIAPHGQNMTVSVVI

[20] = biological target: T5, Neuropeptide FF receptor 1 (Homo sapiens, UniProt Q9GZQ6); assay: Antagonist potency at human NPFFR1 expressed in CHO cell membrane assessed as inhibition of NPVF induced cAMP response incubated for 1 hr by Topcount counting method; format: functional, cell membranes; settings: read-out: pA2 (converted)
T5 sequence (Q9GZQ6 whole entry): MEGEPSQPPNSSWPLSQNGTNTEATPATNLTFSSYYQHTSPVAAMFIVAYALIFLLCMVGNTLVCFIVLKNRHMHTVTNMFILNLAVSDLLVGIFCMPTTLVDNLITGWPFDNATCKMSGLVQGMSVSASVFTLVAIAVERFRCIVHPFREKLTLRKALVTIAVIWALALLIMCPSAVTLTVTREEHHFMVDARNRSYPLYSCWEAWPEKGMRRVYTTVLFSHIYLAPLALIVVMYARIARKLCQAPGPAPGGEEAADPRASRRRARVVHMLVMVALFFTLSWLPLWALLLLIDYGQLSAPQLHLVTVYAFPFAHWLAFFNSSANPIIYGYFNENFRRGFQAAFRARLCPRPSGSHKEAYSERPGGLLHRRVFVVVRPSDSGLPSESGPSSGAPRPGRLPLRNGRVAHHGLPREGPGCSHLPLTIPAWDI

Mus musculus [21] = assay: Antinociceptive activity in mouse at 2.5 to 10 mg/kg, sc measured after 6 hrs by tail immersion test; format: functional, organism-based; settings: dose 2.5-10 mg/kg
[22] = biological target: T5, Neuropeptide FF receptor 1; assay: Displacement of [125I]-1DMeNPFF from human NPFFR1 expressed in CHO cell membrane at 0.5 uM incubated for 1 hr by Topcount counting method relative to control; format: cell membranes
Mu-type opioid receptor [23] = biological target: T3, Mu-type opioid receptor; assay: Agonist activity at human MOP expressed in HEK293 cells coexpressing GloSensor-20F assessed as inhibition of forskolin-induced cAMP accumulation relative to control; format: functional, cell-based; settings: filed as agonist
[24] = biological target: KiSS-1 receptor (Homo sapiens) (UniProt Q969F8); assay: Agonist activity at human GPR54 expressed in CHO cells assessed as intracellular calcium release upto 10 uM by Fluo-4 AM dye based calcium mobilization assay; format: functional, cell-based
[25] = biological target: T1, Neuropeptide FF receptor 2; assay: Antagonist activity at human NPFFR2 expressed in CHO cell membrane assessed as inhibition of NPVF induced cAMP response at 5 uM incubated for 1 hr by Topcount counting method relative to control; format: functional, cell membranes; set-up: scale not given: the % may be the effect or the level left; settings: filed as antagonist
[26] = biological target: T5, Neuropeptide FF receptor 1; assay: Antagonist activity at human NPFFR1 expressed in CHO cell membrane assessed as inhibition of NPVF induced cAMP response at 5 uM incubated for 1 hr by Topcount counting method relative to control; format: functional, cell membranes; set-up: scale not given: the % may be the effect or the level left
[27] = biological target: T4, Prolactin-releasing peptide receptor (Homo sapiens); assay: Agonist activity at human GPR10 expressed in CHO cells assessed as intracellular calcium release upto 10 uM by Fluo-4 AM dye based calcium mobilization assay; format: functional, cell-based
[28] = biological target: T5, Neuropeptide FF receptor 1; assay: Displacement of [125I]-1DMeNPFF from human NPFFR1 expressed in CHO cell membrane incubated for 1 hr by Topcount counting method; format: cell membranes
[29] = biological target: T1, Neuropeptide FF receptor 2; assay: Antagonist potency at human NPFFR2 expressed in CHO cell membrane assessed as inhibition of NPVF induced cAMP response incubated for 1 hr by Topcount counting method; format: functional, cell membranes; settings: read-out: pA2 (converted)
[30] = biological target: T2, Pyroglutamylated RF-amide peptide receptor (Homo sapiens); assay: Agonist activity at human GPR103 expressed in CHO cells assessed as intracellular calcium release upto 10 uM by Fluo-4 AM dye based calcium mobilization assay; format: functional, cell-based
[31] = Tmax in mouse at 10 mg/kg, sc measured upto 24 hrs by LC-MS/MS analysis; format: ADME, organism-based; settings: in vivo
[32] = Induction of motor coordination impairment in C57BL/6 mouse at 20 mg/kg, sc by rotarod assay; format: toxicity, organism-based; settings: in vivo
[33] = biological target: Nociceptin receptor (Homo sapiens) (UniProt P41146); assay: Agonist activity at human NOR expressed in HEK293 cells assessed as forskolin-induced cAMP accumulation; format: functional, cell-based
[34] = Drug metabolism in human plasma assessed as H-Aba-betaAla-Bpa-Phe-NH2 formation measured upto 270 mins by LC-MS analysis; format: ADME, cell-free; settings: 4.5 h
Mu-type opioid receptor [35] = biological target: T3, Mu-type opioid receptor; assay: Agonist activity at human MOP expressed in HEK293 cells coexpressing GloSensor-20F assessed as inhibition of forskolin-induced cAMP accumulation; format: functional, cell-based
[36] = Drug metabolism in human plasma assessed as H-Dmt-D-Pro-OH formation measured upto 270 mins by LC-MS analysis; format: ADME, cell-free; settings: 4.5 h

## CN1CC[C@]23c4c5ccc(O)c4O[C@H]2[C@@H](O)C=C[C@H]3[C@H]1C5 [MORPHINE]
Mus musculus [1]
  Activity: inactive
[2]
  Activity: Toxic
Mus musculus [3]
  Activity: inactive
[4]
  Activity: Toxic
Mus musculus [5]
  Activity: inactive
Mus musculus [6]
  Activity: inactive
[7]
  Activity: Dose-Dependent Effect

## Cc1cc(O)cc(C)c1C[C@H](N)C(=O)N(C)[C@H](C)C(=O)N[C@H]1Cc2c(ccc3ccccc23)CN(CC(=O)N[C@@H](CCCN2CCC(Cc3ccccc3)CC2)C(=O)N[C@@H](Cc2ccccc2)C(N)=O)C1=O
[8]
  Activity: 51%
[9]
  half-life: 3.88 h
[10]
  Activity: Active
[11]
  Ki: 54 nM
[12]
  Activity: inactive
Mu-type opioid receptor [13]
  EC50: Not Active
[14]
  Activity: inactive
[15]
  Cmax: 446 nM
[16]
  Activity: Active
[17]
  concentration at 2 h: 474 nM
[18]
  Activity: Active
[19]
  Activity: inactive
[20]
  Kb: 5890 nM
Mus musculus [21]
  Activity: Active
[22]
  Activity: 22%
Mu-type opioid receptor [23]
  Emax: 73%
[24]
  Activity: inactive
[25]
  Activity: 80%
[26]
  Activity: 3%
[27]
  Activity: inactive
[28]
  Ki: 1170 nM
[29]
  Kb: 102 nM
[30]
  Activity: inactive
[31]
  Tmax: 1.83 h

## CN(C)CCC=C1c2ccccc2CCc2ccccc21 [AMITRIPTYLINE]
[32]
  Activity: Toxic

## Cc1cc(O)cc(C)c1C[C@H](N)C(=O)N1CCC[C@@H]1C(=O)N[C@H]1Cc2ccccc2CN(CCC(=O)N[C@@H](CCCN2CCC(Cc3ccccc3)CC2)C(=O)N[C@@H](Cc2ccccc2)C(N)=O)C1=O (H-[Dmt][dP][X1][Nva(5-(4-Bn-piperidin-1-yl))]F-NH2)
[8]
  Activity: 72%
[9]
  half-life: 0.28 h
[11]
  Ki: 29 nM
[12]
  Activity: inactive
Mu-type opioid receptor [13]
  EC50: Not Active
[14]
  Activity: inactive
[15]
  Cmax: 345 nM
[16]
  Activity: Active
[17]
  concentration at 2 h: 10.7 nM
[18]
  Activity: Active
[33]
  Activity: inactive
[19]
  Activity: inactive
[20]
  Kb: 6310 nM
[34]
  Drug metabolism: Metabolite_Detected
Mu-type opioid receptor [35]
  EC50: 8 nM
Mus musculus [21]
  Activity: Active
[22]
  Activity: 33%
Mu-type opioid receptor [23]
  Emax: 50%
[24]
  Activity: inactive
[36]
  Drug metabolism: Metabolite_Detected
[25]
  Activity: 46%
[26]; filed as antagonist
  Activity: 75%
[27]
  Activity: inactive
[28]
  Ki: 1190 nM
[29]
  Kb: 380 nM
[30]
  Activity: inactive
[31]
  Tmax: 0.139 h
